pKi: −log10 of the molar value.
What follows are molecules tested against human capsaicin receptor (VR1) (Homo sapiens, UniProt Q8NER1) (assay: Capsaicin receptor binding assay ([3H]RTX competition, VR1-transfected HEK293 membranes)).
Chain of human capsaicin receptor (VR1) (Q8NER1 whole entry): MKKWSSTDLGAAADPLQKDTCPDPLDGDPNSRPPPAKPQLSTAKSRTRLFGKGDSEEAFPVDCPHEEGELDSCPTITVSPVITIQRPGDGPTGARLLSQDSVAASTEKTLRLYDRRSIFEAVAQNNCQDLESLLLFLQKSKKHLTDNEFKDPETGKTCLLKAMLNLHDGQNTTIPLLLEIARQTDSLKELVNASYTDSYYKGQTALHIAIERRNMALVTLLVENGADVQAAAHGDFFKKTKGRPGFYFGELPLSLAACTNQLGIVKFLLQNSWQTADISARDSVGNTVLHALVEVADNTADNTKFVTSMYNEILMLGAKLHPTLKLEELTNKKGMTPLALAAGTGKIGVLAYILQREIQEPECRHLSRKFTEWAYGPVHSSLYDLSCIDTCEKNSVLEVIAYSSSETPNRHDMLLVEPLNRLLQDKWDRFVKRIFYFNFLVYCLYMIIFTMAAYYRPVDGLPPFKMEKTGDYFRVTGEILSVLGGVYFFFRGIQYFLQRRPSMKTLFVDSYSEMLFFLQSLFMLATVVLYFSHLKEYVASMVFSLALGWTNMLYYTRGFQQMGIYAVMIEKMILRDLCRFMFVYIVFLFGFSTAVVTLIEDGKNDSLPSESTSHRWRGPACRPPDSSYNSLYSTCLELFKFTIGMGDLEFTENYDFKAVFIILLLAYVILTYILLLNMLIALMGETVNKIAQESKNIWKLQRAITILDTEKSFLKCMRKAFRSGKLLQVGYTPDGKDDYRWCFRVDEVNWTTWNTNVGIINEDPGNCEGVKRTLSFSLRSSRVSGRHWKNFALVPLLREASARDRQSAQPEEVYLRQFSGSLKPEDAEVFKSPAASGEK

Row | Compound | pKi
1 | CC(C)COCc1nc(Nc2ccc(S(C)(=O)=O)cc2)c2ccc(-c3ncccc3Cl)nc2n1 [Compound 226, [7-(3-Chloro-pyridin-2-yl)-2-isobutoxymethyl-pyrido[2,3-d]pyrimidin-4-yl]-(4-methanesulfonyl-phenyl)-amine] | > 6.00
2 | CCN(CC)CC(C)(C)c1ccc(Nc2nc(COC)nc3nc(-c4ncccc4C)ccc23)cc1 [Compound 227, [4-(2-Diethylamino-1,1-dimethyl-ethyl)-phenyl]-[2-methoxymethyl-7-(3-methyl-pyridin-2-yl)-pyrido[2,3-d]pyrimidin-4-yl]-amine] | > 6.00
3 | COC(=O)[C@@H](OCc1nc(Nc2ccc(C(C)(C)C)cc2)c2ccc(-c3ncccc3C(F)(F)F)cc2n1)C(C)C [Compound 228, 2-[4-(4-tert-Butyl-phenylamino)-7-(3-trifluoromethyl-pyridin-2-yl)-quinazolin-2-ylmethoxy]-3-methyl-butyric acid methyl ester (S)] | > 6.00
4 | CC(C)COCc1nc(Nc2ccc(C(C)C(F)(F)F)cc2)c2ccc(-c3ncccc3C(F)(F)F)nc2n1 (stereo not drawn) [Compound 232, [2-Isobutoxymethyl-7-(3-trifluoromethyl-pyridin-2-yl)-pyrido[2,3-d]pyrimidin-4-yl]-[4-(2,2,2-trifluoro-1-methyl-ethyl)-phenyl]-amine] | > 6.00
5 | CC(C)COCc1nc(Nc2ccc(C(C)C(F)(F)F)cc2)c2ccc(-c3ncccc3Cl)nc2n1 (stereo not drawn) [Compound 233, [7-(3-Chloro-pyridin-2-yl)-2-isobutoxymethyl-pyrido[2,3-d]pyrimidin-4-yl]-[4-(2,2,2-trifluoro-1-methyl-ethyl)-phenyl]-amine] | > 6.00
6 | COCc1nc(Nc2ccc(S(=O)(=O)C(F)(F)F)cc2)c2ccc(-c3nccnc3Cl)nc2n1 [Compound 239, [7-(3-Chloro-pyrazin-2-yl)-2-methoxymethyl-pyrido[2,3-d]pyrimidin-4-yl]-(4-trifluoromethanesulfonyl-phenyl)-amine] | > 6.00
7 | CCOCc1nc(Nc2ccc(C(F)F)cc2)c2ccc(-c3ncccc3C(F)(F)F)nc2n1 [Compound 241, (4-Difluoromethyl-phenyl)-[2-ethoxymethyl-7-(3-trifluoromethyl-pyridin-2-yl)-pyrido[2,3-d]pyrimidin-4-yl]-amine] | > 6.00
8 | CC(C)COCc1nc(Nc2ccc(C(F)F)cc2)c2ccc(-c3ncccc3C(F)(F)F)nc2n1 [Compound 242, (4-Difluoromethyl-phenyl)-[2-isobutoxymethyl-7-(3-trifluoromethyl-pyridin-2-yl)-pyrido[2,3-d]pyrimidin-4-yl]-amine] | > 6.00
9 | CC(C)COCc1nc(Nc2ccc(F)cc2)c2ccc(-c3ncccc3C(F)(F)F)nc2n1 [Compound 248, (4-Fluoro-phenyl)-[2-isobutoxymethyl-7-(3-trifluoromethyl-pyridin-2-yl)-pyrido[2,3-d]pyrimidin-4-yl]-amine] | > 6.00
10 | CC(C)COCc1nc(Nc2ccc(Cl)cc2)c2ccc(-c3ncccc3C(F)(F)F)nc2n1 [Compound 249, (4-Chloro-phenyl)-[2-isobutoxymethyl-7-(3-trifluoromethyl-pyridin-2-yl)-pyrido[2,3-d]pyrimidin-4-yl]-amine] | > 6.00
11 | CC(=O)c1ccc(Nc2nc(COCC(C)C)nc3nc(-c4ncccc4C(F)(F)F)ccc23)cc1 [Compound 250, 1-{4-[2-Isobutoxymethyl-7-(3-trifluoromethyl-pyridin-2-yl)-pyrido[2,3-d]pyrimidin-4-ylamino]-phenyl}-ethanone] | > 6.00
12 | CCOc1ccc(Nc2nc(COCC(C)C)nc3nc(-c4ncccc4C(F)(F)F)ccc23)cc1 [Compound 251, (4-Ethoxy-phenyl)-[2-isobutoxymethyl-7-(3-trifluoromethyl-pyridin-2-yl)-pyrido[2,3-d]pyrimidin-4-yl]-amine] | > 6.00
13 | CC(C)COCc1nc(Nc2ccc(F)c(F)c2)c2ccc(-c3ncccc3C(F)(F)F)nc2n1 [Compound 252, (3,4-Difluoro-phenyl)-[2-isobutoxymethyl-7-(3-trifluoromethyl-pyridin-2-yl)-pyrido[2,3-d]pyrimidin-4-yl]-amine] | > 6.00
14 | Cc1cc(Nc2nc(COCC(C)C)nc3nc(-c4ncccc4C(F)(F)F)ccc23)ccc1F [Compound 253, (4-Fluoro-3-methyl-phenyl)-[2-isobutoxymethyl-7-(3-trifluoromethyl-pyridin-2-yl)-pyrido[2,3-d]pyrimidin-4-yl]-amine] | > 6.00
15 | CC(C)COCc1nc(Nc2ccc(F)c(C(F)(F)F)c2)c2ccc(-c3ncccc3C(F)(F)F)nc2n1 [Compound 254, (4-Fluoro-3-trifluoromethyl-phenyl)-[2-isobutoxymethyl-7-(3-trifluoromethyl-pyridin-2-yl)-pyrido[2,3-d]pyrimidin-4-yl]-amine] | > 6.00
16 | CC(C)COCc1nc(Nc2ccc(Cl)c(C(F)(F)F)c2)c2ccc(-c3ncccc3C(F)(F)F)nc2n1 [Compound 255, (4-Chloro-3-trifluoromethyl-phenyl)-[2-isobutoxymethyl-7-(3-trifluoromethyl-pyridin-2-yl)-pyrido[2,3-d]pyrimidin-4-yl]-amine] | > 6.00
17 | COc1ccc(Nc2nc(COCC(C)C)nc3nc(-c4ncccc4C(F)(F)F)ccc23)cc1C(F)(F)F [Compound 256, [2-Isobutoxymethyl-7-(3-trifluoromethyl-pyridin-2-yl)-pyrido[2,3-d]pyrimidin-4-yl]-(4-methoxy-3-trifluoromethyl-phenyl)-amine] | > 6.00
18 | Cc1ccc(Nc2nc(COCC(C)C)nc3nc(-c4ncccc4C(F)(F)F)ccc23)cc1C [Compound 257, (3,4-Dimethyl-phenyl)-[2-isobutoxymethyl-7-(3-trifluoromethyl-pyridin-2-yl)-pyrido[2,3-d]pyrimidin-4-yl]-amine] | > 6.00
19 | COc1ccc(Nc2nc(COCC(C)C)nc3nc(-c4ncccc4C(F)(F)F)ccc23)cc1F [Compound 258, (3-Fluoro-4-methoxy-phenyl)-[2-isobutoxymethyl-7-(3-trifluoromethyl-pyridin-2-yl)-pyrido[2,3-d]pyrimidin-4-yl]-amine] | > 6.00

The next lines start with the values.

Row | pKi | Compound
20 | > 6.00 | CCOCc1nc(Nc2ccc(C(C)(C)C#N)cc2)c2ccc(-c3ncccc3C(F)(F)F)nc2n1 [Compound 225, 2-{4-[2-Ethoxymethyl-7-(3-trifluoromethyl-pyridin-2-yl)-pyrido[2,3-d]pyrimidin-4-ylamino]-phenyl}-2-methyl-propionitrile]
21 | > 6.00 | C[C@@H](OCc1nc(Nc2ccc(C(C)(C)C)cc2)c2ccc(-c3ncccc3C(F)(F)F)cc2n1)C(=O)O [Compound 229, (R)-2-[4-(4-tert-Butyl-phenylamino)-7-(3-trifluoromethyl-pyridin-2-yl)-quinazolin-2-ylmethoxy]-propionic acid (chiral)]
22 | > 6.00 | CC(C)[C@H](OCc1nc(Nc2ccc(C(C)(C)C)cc2)c2ccc(-c3ncccc3C(F)(F)F)cc2n1)C(=O)O [Compound 230, (S)-2-[4-(4-tert-Butyl-phenylamino)-7-(3-trifluoromethyl-pyridin-2-yl)-quinazolin-2-ylmethoxy]-3-methyl-butyric acid]
23 | > 6.00 | CCOCc1nc(Nc2ccc(C(C)C(F)(F)F)cc2)c2ccc(-c3ncccc3C(F)(F)F)nc2n1 (stereo not drawn) [Compound 231, [2-Ethoxymethyl-7-(3-trifluoromethyl-pyridin-2-yl)-pyrido[2,3-d]pyrimidin-4-yl]-[4-(2,2,2-trifluoro-1-methyl-ethyl)-phenyl]-amine]
24 | > 6.00 | CC(C)[C@@H](OCc1nc(Nc2ccc(C(C)(C)C)cc2)c2ccc(-c3ncccc3C(F)(F)F)cc2n1)C(=O)O [Compound 234, 2-[4-(4-tert-Butyl-phenylamino)-7-(3-trifluoromethyl-pyridin-2-yl)-quinazolin-2-ylmethoxy]-3-methyl-butyric acid (R)]
25 | > 6.00 | COCc1nc(Nc2ccc(C(F)(F)F)cc2)c2ccc(-c3nccnc3Cl)nc2n1 [Compound 235, [7-(3-Chloro-pyrazin-2-yl)-2-methoxymethyl-pyrido[2,3-d]pyrimidin-4-yl]-(4-trifluoromethyl-phenyl)-amine]
26 | > 6.00 | COCc1nc(Nc2ccc(C(C)(C)C)cc2)c2ccc(-c3nccnc3Cl)nc2n1 [Compound 236, (4-tert-Butyl-phenyl)-[7-(3-chloro-pyrazin-2-yl)-2-methoxymethyl-pyrido[2,3-d]pyrimidin-4-yl]-amine]
27 | > 6.00 | COCc1nc(Nc2ccc(C(C)C)cc2)c2ccc(-c3nccnc3Cl)nc2n1 [Compound 237, [7-(3-Chloro-pyrazin-2-yl)-2-methoxymethyl-pyrido[2,3-d]pyrimidin-4-yl]-(4-isopropyl-phenyl)-amine]
28 | > 6.00 | COCc1nc(Nc2ccc(C(C)(C)C#N)cc2)c2ccc(-c3nccnc3Cl)nc2n1 [Compound 238, 2-{4-[7-(3-Chloro-pyrazin-2-yl)-2-methoxymethyl-pyrido[2,3-d]pyrimidin-4-ylamino]-phenyl}-2-methyl-propionitrile]
29 | > 6.00 | COCc1nc(Nc2ccc(C(F)F)cc2)c2ccc(-c3ncccc3C(F)(F)F)nc2n1 [Compound 240, (4-Difluoromethyl-phenyl)-[2-methoxymethyl-7-(3-trifluoromethyl-pyridin-2-yl)-pyrido[2,3-d]pyrimidin-4-yl]-amine]
30 | > 6.00 | COCc1nc(Nc2ccc(C(F)F)cc2)c2ccc(-c3ncccc3Cl)nc2n1 [Compound 243, [7-(3-Chloro-pyridin-2-yl)-2-methoxymethyl-pyrido[2,3-d]pyrimidin-4-yl]-(4-difluoromethyl-phenyl)-amine]
31 | > 6.00 | CCOCc1nc(Nc2ccc(C(F)F)cc2)c2ccc(-c3ncccc3Cl)nc2n1 [Compound 244, [7-(3-Chloro-pyridin-2-yl)-2-ethoxymethyl-pyrido[2,3-d]pyrimidin-4-yl]-(4-difluoromethyl-phenyl)-amine]
32 | > 6.00 | CO[C@H](C)c1nc(Nc2ccc(C(F)(F)F)cc2)c2ccc(-c3ncccc3Cl)nc2n1 [Compound 245, (R)-[7-(3-Chloro-pyridin-2-yl)-2-(1-methoxy-ethyl)-pyrido[2,3-d]pyrimidin-4-yl]-(4-trifluoromethyl-phenyl)-amine]
33 | > 6.00 | CN1CCC(COCc2nc(Nc3ccc(C(F)(F)F)cc3)c3ccc(-c4ncccc4C(F)(F)F)cc3n2)CC1 [Compound 247, [2-(1-Methyl-piperidin-4-ylmethoxymethyl)-7-(3-trifluoromethyl-pyridin-2-yl)-quinazolin-4-yl]-(4-trifluoromethyl-phenyl)-amine]
